From US7098364B2, “Phenylethanolamine compounds as β2-receptor agonists, and methods of use and preparation thereof” (Shenyang Pharmaceutical University, priority 2001, dated 2006) come the findings set out here.

SMILES strings stand for the structures.

The assay has as its system isolated guinea pig trachea strips. Put plainly: Antagonistic effect on histamine-induced bronchoconstriction in isolated guinea pig trachea strips. Format: cell-based. The following applies: trachea strips contracted by histamine (10^-6-10^-4 M) to 50% of maximum contraction; compounds at 10^-6 or 3×10^-4 M; Krebs-Hensleit solution, 37° C. The protocol: The antagonistic effects of bronchoconstrtriction induced by histamine of the compounds of the present invention were evaluated by isolated guinea pig trachea strips.
Apparatus: polygrapher recorder, strain gauge transducer
Conditions: Krebs-Hensleit solution; gas mixture(95% O2, 5% CO2); Paper speed: 4 mm/min; 37° C.
Animals: guinea pigs (Harley, purchased from the Experimental Animal Center of China Medical University) of either sex weighting 350–500 g were used.
Reagent: Histamines phosphate solution(10^−6–10^−4M)
Method: Guinea pigs were sacrificed and the trachea strips(2 cm×3 mm) were prepared; the preparation was then mounted under a testing tension of 2 g in an organ bath containing 10 mL Kebs-Hensleits solution at 37° C. and superfused with the gas mixture mentioned above and the preparation was allowed to equilibrate for 2 h before the addition of histamine. When the tension of trachea strips reached 50% of the maximum contraction, the tested compounds was added to bath, and the antagonistic effect (represented as relaxing rate) was calculated as below: Relaxing rate=(Contraction intensity after histamine addition-Contraction intensity after tested compounds addition)/[…]×100%

`CC(C)NC(CO)c1cc(Cl)c(N)c(C(F)(F)F)c1.Cl` (stereo not drawn): the “Relaxing rate (%)” value is given as 52.5%.
The figure for `Cl.Nc1c(Br)cc(C(CO)NC2CC2)cc1C(F)(F)F` (stereo not drawn) is 10.2%; for `Cl.N#Cc1cc(C(CO)NC2CCC2)cc(Cl)c1N` (stereo not drawn) it is 36.7%.
The figure for `CC(C)NC(CO)c1cc(Br)c(N)c(C#N)c1.Cl` (stereo not drawn) is 77.6%; for `Cl.Cl.N#Cc1cc(C(CO)NC2CCC2)cc(Br)c1N` (stereo not drawn) it is 30.8%.
Take `Cl.N#Cc1cc(C(CO)NC2CCC2)ccc1N` (stereo not drawn): the “Relaxing rate (%)” value was 18.9%.
Regarding `CC(C)NC(CO)c1ccc(N)c(C#N)c1.Cl` (stereo not drawn), the “Relaxing rate (%)” value stood at 60.3%.
With `Cl.Nc1c(Br)cc(C(CO)NC2CCC2)cc1C(F)(F)F` (stereo not drawn), the “Relaxing rate (%)” value is given as 12.9%.
With `CC(C)(CO)NC(CO)c1cc(Cl)c(N)c(C(F)(F)F)c1.Cl` (stereo not drawn), the “Relaxing rate (%)” value was 85.1%.
For `CC(C)(CO)NC(CO)c1cc(Br)c(N)c(C(F)(F)F)c1.Cl` (stereo not drawn), the “Relaxing rate (%)” value is reported as 128.2%.
With `CC(C)(CO)NC(CO)c1cc(Cl)c(N)c(C#N)c1.Cl.Cl` (stereo not drawn), the “Relaxing rate (%)” value is 15.3%.
The figure for `CC(C)(C)NC(CO)c1ccc(N)c(C(F)(F)F)c1.Cl` (stereo not drawn) is 55.6%.
With `Cl.Cl.N#Cc1cc(C(CO)NC2CC2)ccc1N` (stereo not drawn), the “Relaxing rate (%)” value was 15.7%.
For the molecule `CC(C)(CO)NC(CO)c1cc(Br)c(N)c(C#N)c1.Cl` (stereo not drawn), the “Relaxing rate (%)” value turned out to be 89.6%.
In the case of `CC(C)(CO)NC(CO)c1ccc(N)c(C#N)c1.Cl` (stereo not drawn), the “Relaxing rate (%)” value is given as 65.3%.
Regarding `Br.CC(C)(C)NC(CO)c1cc(Cl)c(N)c(C(F)(F)F)c1` (stereo not drawn), the “Relaxing rate (%)” value was found to be 165.9%.
`CC(C)NC(CO)c1cc(Cl)c(N)c(C#N)c1.Cl.Cl` (stereo not drawn) [drawing 7]: the “Relaxing rate (%)” value is recorded as 69.2%.
For `CC(C)NC(CO)c1cc(Cl)c(N)c(C#N)c1.Cl.Cl` (stereo not drawn) [drawing 20], the “Relaxing rate (%)” value came to 70.5%.
